Test results reported in US9399028B2, “Treatment of drug resistant cancer” (ROCKEFELLER UNIVERSITY (THE), priority 2012, dated 2016).
Structures can show the parent of a compound that is named as a salt.

Tests used:
MeWo cells = experiment: Orthotopic metastasis assay after tumor excision; type: in vivo, human; conditions: chow 100 mg/kg for 1 month
Description: To determine the effect of GW3965 treatment on lung colonization by melanoma cells dissociated from an orthotopic site, 1×10^6 MeWo cells expressing a luciferase reporter were subcutaneously injected into both lower flanks of NOD Scid mice. Upon the formation of tumors measuring 300 mm^3 in volume, the tumors were excised and the mice were randomly assigned to a control diet or a GW3965-supplemented diet (100 mg/kg) treatment. One month after tumor excision, the lungs were extracted and lung colonization was measured by ex vivo bioluminescence imaging. To histologically confirm the extent of melanoma lung colonization, lungs were then fixed in 4% PFA overnight, paraffin-embedded, section into […] increments and stained for human vimentin (VP-V684, Vector Laboratories).

[1] = system: B-RafV600E/+; Pten-/-; CDKN2A-/- primary mouse melanoma cells; experiment: B-RafV600E/+; Pten-/-; CDKN2A-/- melanoma cells in syngeneic C57BL/6 mice; type: in vivo
Description: FIG. 24A-F. Suppression of Genetically-Driven Melanoma Progression by LXR Activation Therapy. (FIG. 24A) Overall survival of Tyr::CreER; BrafV600E/+; Ptenlox/+C57BL/6 mice following general melanoma induction by intraperitoneal administration of 4-HT (25 mg/kg) on three consecutive days. After the first 4-HT injection, mice were randomly assigned to a control diet or a diet supplemented with GW3965 (100 mg/kg). n=10-11. (FIG. 24B) Melanoma tumor burden, expressed as the percentage of dorsal skin area, measured on day 35 in Tyr::CreER; BrafV600E/+; Ptenlox/lox mice administered a control chow or a chow supplemented with GW3965 (100 mg/kg) upon melanoma induction as described in (FIG. 24A). n=4-5. (FIG. 24C) Number of macroscopic metastatic nodules to the salivary gland lymph nodes detected post-mortem in Tyr::CreER; BrafV600E/+; Ptenlox/lox mice that were fed a control chow or a chow containing GW3965 (100 mg/kg) following global induction of melanoma progression as described in (FIG. 24A). n=7-8. (FIG. 24D) Tumor growth following subcutaneous injection of 1×105 BrafV600E/+; Pten−/−; CDKN2A−/− primary melanoma cells into syngeneic C57BL/6-WT mice. Upon tumor growth to 5-10 mm3 in volume, mice were fed with a control chow or a chow supplemented with GW3965 (100 mg/kg). n=16-18. […]

O=C(O)Cc1cccc(OCCCN(Cc2cccc(C(F)(F)F)c2Cl)CC(c2ccccc2)c2ccccc2)c1 [GW3965 2, 3-[3-[N-(2-Chloro-3-trifluoromethylbenzyl)-(2,2-diphenylethyl)amino]propyloxy]phenylacetic acid hydrochloride]
inhibition of lung colonization by disseminated melanoma cells post-tumor excision (MeWo cells): 17 fold | lung metastasis ([1]; intravenous, diet 100 mg/kg): robustly inhibited | tumor growth ([1]; subcutaneous, chow 100 mg/kg): robustly inhibited
